The text below walks through data of patent publication US11666656B2, “Polymeric conjugates and uses thereof” (Ramot at Tel-Aviv University Ltd., priority 2016, dated 2023).

In one assay the test system is melanoma xenografts. To be noted: cited from earlier work.
A further assay has as its system mutant BRAF. The following applies: cell lines; cited from earlier work.
Assay [1] relates to MEK and ERK phosphorylation. The following applies: BRAF mutated cell lines; cited from earlier work.
Another assay has as its system 131/4-5B1 melanoma cells. The assay is described as follows: Proliferation of 131/4-5B1 melanoma cells (viable cell count). In kind it is cell-based. The following applies: Homo sapiens; 131/4-5B1 cells, 72 hours incubation. The protocol:
131/4-5B1 (human melanoma brain-metastasis cell line that was obtained from Dr. Kerbel' Lab) (15,000/well) were plated onto 24-well culture in RPMI medium supplemented with 10% FBS and incubated for 24 hours (37° C.; 5% CO2). The medium was then replaced with RPMI supplemented with 10% FBS. Cells were exposed to free selumetinib, free amine-modified dabrafenib (Scheme 8) or both, at a SLM-DBF mol ratio of 10:1 at serial dilutions. Number of viable cells was counted by a Z1 Coulter Counter® Cell and Particle Counter (Beckman Coulter®) following 72 hours incubation.
Inhibition of 131/4-5B1, human melanoma brain-metastasis cells by free selumetinib (SLM), free diol-modified dabrafenib (DBFdiol; see, Scheme 11), a combination of the free drugs at 3:1 SLM:DBFdiol mol ratio, PGA-SLM (see, Scheme 19), PGA-DBFdiol (see, Scheme 11), a combination of PGA-SLM and PGA-DBFdiol, and PGA-SLM-DBFdiol conjugate (see, Scheme 23) was determined.
131/4-5B1 cells (15,000/well) were plated onto 24-well culture in RPMI medium supplemented with 10% FBS and incubated for 24 hours (37° C.; 5% CO2). […] Cells were exposed to PGA-SLM conjugate, PGA-DBFdiol conjugate, to the combination of both at a SLM-DBF mol ratio of 10:1 and to the combined PGA-SLM-DBFdiol conjugate, calculated according to the SLM loading and assuming 10:1 mol ratio between SLM and DBF, at serial dilutions. […]

With `CC(C)(C)c1nc(-c2cccc(NS(=O)(=O)c3c(F)cccc3F)c2F)c(-c2ccnc(N)n2)s1` [Dabrafenib], the tumor regression result in the assay with melanoma xenografts is “induces tumor regression”. Moreover, the “selectivity for mutant BRAF over wild-type BRAF” value in the assay with mutant BRAF is listed as “more than 100 fold”. The “inhibition of MEK and ERK phosphorylation” value in assay [1] is recorded as “dose-dependent inhibition”.

Consider `Cn1cnc2c(F)c(Nc3ccc(Br)cc3Cl)c(C(=O)NOCCO)cc21` [SLM, Selumetinib], for which, in the assay with 131/4-5B1 melanoma cells, the IC50 was determined as 70 nM.

By IC50 is commonly meant the midpoint of a concentration-inhibition curve.
